According to paper PMC5537602, “TRPA1 channel mediates organophosphate-induced delayed neuropathy” (Cell Discovery, 2017):
Entries after “also recorded” stand apart in the source; their conditions may differ.

How the values were obtained:
[1] = biological target: T1, hTRPA1 (Homo sapiens, UniProt O75762); assay: cell-based; type: cell-based
T1 construct: expressed in transfected cells; host or cells: HEK293, transient, EGFP plasmid co-transfected
Protocol: (§1) Human embryonic kidney 293 (HEK293) cells were cultured in DMEM containing 10% (vol/vol) heat-inactivated fetal bovine serum, 100 units ml^−1 penicillin–streptomycin and 2 mM L-glutamine at 37 °C in a humidity-controlled sterile incubator with 5% CO2. All cell culture reagents were purchased from Life Technologies. HEK293 cells were transfected transiently with the corresponding plasmids using lipofectamine 2000 (Life Technologies). Transfection efficiency was monitored by co-transfecting EGFP plasmid which codes for the enhanced green fluorescent protein. Electrophysiological recordings were performed between 24 and 36 h after transfection.
(§2) Whole-cell patch-clamp recordings in DRG neurons (small diameter, […]) and HEK293 cells were operated at room temperature (23–25 °C) using EPC-10 amplifier and Patch Master Software (HEKA). […] Currents were sampled at 10 kHz and low-pass filtered at 2.9 kHz. The internal solution was as follows (in mM): 140 CsCl, 10 HEPES, 5 EGTA, 0.1 CaCl2 and 1 MgCl2, with pH adjusted to 7.2 by CsOH and osmolarity 295–300 mOsm. The calcium-free external solution contained (in mM) 140 NaCl, 5 KCl, 0.5 EGTA, 1 MgCl2, 10 Glucose and 10 HEPES, with pH adjusted to 7.4 by NaOH and osmolarity 300–310 mOsm. The 0.5 mM EGTA was replaced by 2 mM CaCl2 for the recordings in DRG neurons. TRPA1 currents development was monitored with repetitive injections of 300 ms duration voltage ramps from −100 to +100 mV every 2 s and the holding potential was set to 0 mV for 50 ms, existing in both sides of the voltage ramp. To record inward currents in DRG neurons, we conducted voltage clamp at holding membrane potential of −70 mV. Solutions were switched using a gravity-fed continuous focal perfusion system.

[2] = system: mouse DRG neurons; assay: Whole-cell patch-clamp of small-diameter DRG neurons; type: cell-based
Protocol: DRG neurons were isolated from young C57 BL/6 mice (4–5 weeks). The sections of thoracic and lumbar DRG neurons were rapidly isolated in calcium and magnesium-free PBS with low temperature conditions (ice-bath environment). The isolated tissues were cut into pieces with scissor and incubated for 30 min with 0.1% collagenase and 0.025% trypsin which were diluted by DMEM-F12 at 37 °C. After digestion, neurons were gently dissociated using Pasteur pipettes and then plated onto poly-D-lysine pre-coated glass cover slips. DRG neurons were cultured for 24 h before use.
as §2

[3] = system: mice; assay: Transmission electron microscopy of local nerve fibers in mice; type: in vivo, mouse
Protocol: For mice, subcutaneous tissue from the site of exposure was removed and fixed by immediate immersion in ice-cold 2.5% glutaraldehyde. Subsequently, the samples were post-fixed in 1% OsO4 for 1 h, dehydrated with an ethanol series and embedded in epon resin. Sixty-nanometer ultra-thin sections were double stained with lead citrate and uranyl acetate and examined using an electron microscopy.

[4] = system: hens; assay: Transmission electron microscopy of hen spinal cord and sciatic nerve; type: in vivo
Protocol: For hens, the animals were anesthetized with sodium pentobarbital (100 mg kg^−1) and killed 21 days after exposure to TOCP and malathion. They were then perfused with normal saline followed immediately by 4% paraformaldehyde. The lumbar spinal cord at approximately the L2-L3 level and the sciatic nerve of the left leg were removed and fixed by immersion in ice-cold 2.5% glutaraldehyde. Subsequently, the samples were post-fixed in 1% OsO4 for 1 h, dehydrated with the ethanol series, and embedded in epon resin. Sixty-nanometer ultra-thin sections were double stained with lead citrate and uranyl acetate and examined with an electron microscopy.

[5] = biological target: mTRPA1 (Mus musculus, UniProt Q8BLA8); assay: Whole-cell patch-clamp, HEK293 cells expressing mTRPA1; type: cell-based; design: expressed in transfected cells; host or cells: HEK293
Protocol: as §1, §2

[6] = 30 μM, calcium-free external solution

T1 sequence (O75762 whole entry): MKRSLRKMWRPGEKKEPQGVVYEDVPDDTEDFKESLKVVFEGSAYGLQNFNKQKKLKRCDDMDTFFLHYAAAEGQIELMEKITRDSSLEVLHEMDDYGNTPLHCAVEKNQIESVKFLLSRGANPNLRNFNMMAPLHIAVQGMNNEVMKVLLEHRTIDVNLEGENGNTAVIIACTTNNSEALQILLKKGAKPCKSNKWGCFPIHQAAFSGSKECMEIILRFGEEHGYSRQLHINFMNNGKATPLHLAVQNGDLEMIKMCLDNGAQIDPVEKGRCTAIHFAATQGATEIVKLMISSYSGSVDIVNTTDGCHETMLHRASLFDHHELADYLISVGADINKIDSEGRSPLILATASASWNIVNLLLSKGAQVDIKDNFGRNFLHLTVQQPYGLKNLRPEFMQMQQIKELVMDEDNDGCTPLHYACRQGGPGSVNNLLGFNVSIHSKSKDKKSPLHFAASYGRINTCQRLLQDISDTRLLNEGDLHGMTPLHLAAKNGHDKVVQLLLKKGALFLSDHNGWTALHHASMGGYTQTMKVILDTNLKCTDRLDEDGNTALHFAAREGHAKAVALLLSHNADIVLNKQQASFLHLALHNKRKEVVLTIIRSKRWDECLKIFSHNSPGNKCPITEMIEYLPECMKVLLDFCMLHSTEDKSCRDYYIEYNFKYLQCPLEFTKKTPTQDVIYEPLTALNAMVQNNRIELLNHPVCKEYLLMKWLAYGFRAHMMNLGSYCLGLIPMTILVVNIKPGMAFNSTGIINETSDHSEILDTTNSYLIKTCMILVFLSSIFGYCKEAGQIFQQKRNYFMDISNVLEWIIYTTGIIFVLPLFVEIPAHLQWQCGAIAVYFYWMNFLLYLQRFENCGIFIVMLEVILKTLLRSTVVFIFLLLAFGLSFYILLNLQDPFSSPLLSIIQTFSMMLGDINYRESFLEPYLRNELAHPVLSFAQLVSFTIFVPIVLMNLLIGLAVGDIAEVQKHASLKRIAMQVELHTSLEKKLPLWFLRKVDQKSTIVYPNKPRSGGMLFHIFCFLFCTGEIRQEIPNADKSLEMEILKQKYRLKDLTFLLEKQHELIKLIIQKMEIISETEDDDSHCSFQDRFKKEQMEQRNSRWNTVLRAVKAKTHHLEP
Sequence of mTRPA1 (Q8BLA8 whole entry): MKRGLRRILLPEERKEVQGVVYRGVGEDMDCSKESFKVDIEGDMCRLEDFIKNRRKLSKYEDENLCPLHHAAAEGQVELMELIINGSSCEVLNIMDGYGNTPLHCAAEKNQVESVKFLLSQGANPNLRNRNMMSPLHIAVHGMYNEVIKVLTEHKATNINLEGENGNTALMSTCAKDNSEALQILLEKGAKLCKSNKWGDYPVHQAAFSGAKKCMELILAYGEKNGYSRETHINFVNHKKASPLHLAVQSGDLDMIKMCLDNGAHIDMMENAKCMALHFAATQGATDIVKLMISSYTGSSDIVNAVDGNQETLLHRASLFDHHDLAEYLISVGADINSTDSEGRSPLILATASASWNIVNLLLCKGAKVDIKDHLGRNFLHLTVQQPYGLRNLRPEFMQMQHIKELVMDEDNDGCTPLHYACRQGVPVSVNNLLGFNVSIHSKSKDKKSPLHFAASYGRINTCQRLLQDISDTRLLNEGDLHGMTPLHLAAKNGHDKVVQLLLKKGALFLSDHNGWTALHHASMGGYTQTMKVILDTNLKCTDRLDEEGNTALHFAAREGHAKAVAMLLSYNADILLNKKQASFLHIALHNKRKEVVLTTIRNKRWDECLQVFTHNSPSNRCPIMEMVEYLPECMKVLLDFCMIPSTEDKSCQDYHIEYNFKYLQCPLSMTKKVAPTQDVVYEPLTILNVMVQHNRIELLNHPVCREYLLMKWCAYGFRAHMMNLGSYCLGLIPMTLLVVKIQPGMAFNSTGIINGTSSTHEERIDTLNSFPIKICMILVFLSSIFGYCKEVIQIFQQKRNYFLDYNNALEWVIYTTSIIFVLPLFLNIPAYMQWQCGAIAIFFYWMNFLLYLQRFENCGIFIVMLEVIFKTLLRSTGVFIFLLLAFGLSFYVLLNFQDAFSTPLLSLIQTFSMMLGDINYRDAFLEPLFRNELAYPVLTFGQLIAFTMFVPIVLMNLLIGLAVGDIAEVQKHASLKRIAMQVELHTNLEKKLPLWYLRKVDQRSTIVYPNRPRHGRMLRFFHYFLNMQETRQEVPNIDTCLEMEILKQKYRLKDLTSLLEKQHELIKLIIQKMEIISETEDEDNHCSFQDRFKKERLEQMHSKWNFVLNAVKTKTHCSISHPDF

CC(C)c1ccc(NC(=O)Cn2cnc3c2c(=O)n(C)c(=O)n3C)cc1 [HC030031]
block of agonist-elicited hTRPA1 currents [1]: blocked; also recorded: inhibited | effect on AITC- or malathion-elicited action potentials ([2]; 10 μM HC030031): suppressed | inhibition of malathion-induced inward currents in DRG neurons ([2]; 10 μM HC030031): inhibited | effect on malathion-induced myelin sheath damage (TEM) ([3]; HC030031 pretreatment): significantly protected the myelin sheath | effect on TOCP- or malathion-induced nerve injuries (TEM) ([4]; HC030031 100 mg kg−1): significantly reduced | block of agonist-elicited mTRPA1 currents ([5]; 10 μM HC030031, malathion or TOCP as agonist): blocked

CCOC(=O)CC(SP(=S)(OC)OC)C(=O)OCC (stereo not drawn) [malathion, S-[1,2-bis (ethoxycarbonyl)ethyl] O, O-dimethyl phosphorodithioate]
activation of hTRPA1 whole-cell currents [1, 6]: large activation current | EC50 ([1]; whole-cell patch-clamp): 14.2 ± 1.84 µM | action potential firing in WT small-diameter neurons ([2]; 100 μM): bursts of action potentials | currents in neurons from Trpa1−/− mice ([2]; Trpa1−/− neurons, 17/17): failed to induce currents | neurons with robust inward currents ([2]; small-diameter neurons from WT mice, 7/18): ~ 39% | nerve fiber damage around the injection site (TEM) ([3]; WT mice, plantar injection, 5% AITC or 30% malathion): damage of the myelin sheath | damage of spinal cord and sciatic nerve (TEM) ([4]; 21 days after exposure): severely damaged the spinal cord and sciatic nerve | activation of mTRPA1 whole-cell currents [5, 6]: large activation current
